Experimental data taken from patent publication EP2027772A1, “Skin-friendly insect repellent” (Beiersdorf AG, priority 2007, dated 2009).

Assay: Octanol/water partition coefficient (log P), shake-flask with UV spectroscopy; alternatively calculated by Hansch and Leo
Conditions: not given
For `CC(C)(CO)CO` [Neopentanediol, Neopentyleme Glyol], the “Log P-Wert” value was -0,3.

Same assay, conditions: n-Octanol/Wasser
With `CC(O)CO` (stereo not drawn) [1,2 Propandiol] the “Log P-Wert” value was -1,3. With `OCCCCO` [Butane-1,4diol, Tetramethylene Glucol] the “Log P-Wert” value was -1.

Assay: physchem
Conditions: not given
For `CC(O)CCO` (stereo not drawn) [1,3 Butandiol], the logP was -0.7. For `OCCCCCO` [1,5 Pentandiol], the logP was -0.6. `OCCCCCCO` [1,6 Hexandiol] showed a logP of -0.1. Compound `OCC(CO)(CO)CO` [2,2 Bishydroxymethyl 1,3 Propanediol] has a logP of -2.4. Work on `CCC(CO)(CO)CO` [2-Ethyl-2-Hydroxymethyl 1,3 Propandiol] yielded a logP of -0.8. Work on `CCCCC(CC)COCC(O)CO` (stereo not drawn) [3-[(2-Ethylhexyl)oxy]-1,2 propandiol] yielded a logP of 2.1.

Same assay, conditions: n-octanol/water
Compound `CCCCCC(O)CO` (stereo not drawn) [1,2 Heptanediol] has a logP of 1.5. `CCCCC(O)CO` (stereo not drawn) [1,2 Hexandiol] gave a logP of 1. With `CCCCCCCC(O)CO` (stereo not drawn) [1,2 Nonanediol] the logP was 2.5. `CCCCCCC(O)CO` (stereo not drawn) [1,2 Octandiol] showed a logP of 1.3. With `CCCC(O)CO` (stereo not drawn) [1,2 Pentandiol] the logP was -0.3. `CCCCCC(O)C(O)CO` (stereo not drawn) [1,2,3 Octanetriol] gave a logP of 0.15. With `CCCCCCCCC(O)CO` (stereo not drawn) [1,2-Decandiol] the logP was 2.4. `COCC(O)COC` [1,3-Dimethoxy-2-propanol] gave a logP of -0.5. Work on `CC(CO)CO` [2-Methyl-1,3-Propanediol] yielded a logP of -0.7. `CC(O)CC(C)(C)O` (stereo not drawn) [2-Methyl-2,4 Pentandiol] showed a logP of 0. Compound `CCC(CO)(CO)COCC(CC)(CO)CO` [3,3,7,7 Tetrahydroxymethyl 5 oxanonan] has a logP of -0.3. `CC(C)(O)CCO` [3-Methyl 1,3 Butanediol] showed a logP of -0.3.
